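Grown in 96-well plates, cells were treated for 48 hours with each compound at five concentrations. Insufficient inhibition: endpoint recorded as highest concentration tested. Abbreviation: GI50, concentration required for 50% inhibition of growth.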 The source made the active and inactive calls. Rule as the data show it: active = GI50 up to about 1.1 µM and inactive = higher.
Key:
Test in all cases: NCI anticancer screen, dose series, 48 h
[1] = test system: 786-0
[2] = test system: A498
[3] = test system: A549
[4] = test system: ACHN
[5] = test system: CCRF-CEM
[6] = test system: COLO 205
[7] = test system: DU-145
[8] = test system: EKVX
[9] = test system: HCC 2998
[10] = test system: HCT-116
[11] = test system: HCT-15
[12] = test system: HL-60
[13] = test system: HOP-62
[14] = test system: HOP-92
[15] = test system: HT-29
[16] = test system: Hs-578T
[17] = test system: IGROV-1
[18] = test system: K562
[19] = test system: KM12
[20] = test system: LOX IMVI
[21] = test system: M14
[22] = test system: MCF7
[23] = test system: MDA-MB-231
[24] = test system: MDA-MB-435
[25] = test system: MDA-N
[26] = test system: MOLT-4
[27] = test system: Malme-3M
[28] = test system: NCI-H226
[29] = test system: NCI-H23
[30] = test system: NCI-H460
[31] = test system: NCI-H522
[32] = test system: NCI/ADR-RES
[33] = test system: OVCAR-3
[34] = test system: OVCAR-4
[35] = test system: OVCAR-5
[36] = test system: OVCAR-8
[37] = test system: PC-3
[38] = test system: RPMI-8226
[39] = test system: RXF 393
[40] = test system: SF-268
[41] = test system: SF-295
[42] = test system: SF-539
[43] = test system: SK-MEL-28
[44] = test system: SK-MEL-2
[45] = test system: SK-MEL-5
[46] = test system: SK-OV-3
[47] = test system: SN12C
[48] = test system: SNB-19
[49] = test system: SNB-75
[50] = test system: SR
[51] = test system: T47D
[52] = test system: TK-10
[53] = test system: U-251
[54] = test system: UACC-257
[55] = test system: UACC-62
[56] = test system: UO-31

## Cc1ccc2c(c1C)C(=O)/C(=C/c1cccc(C)c1C(=O)O)C2
[1]
  GI50: > 100 µM (inactive)
[2]
  GI50: > 45.1 µM (inactive)
[3]
  GI50: 79.6 µM (inactive)
[4]
  GI50: 72.3 µM (inactive)
[5]
  GI50: 50.7 µM (inactive)
[6]
  GI50: > 100 µM (inactive)
[7]
  GI50: > 100 µM (inactive)
[8]
  GI50: > 100 µM (inactive)
[9]
  GI50: 51.5 µM (inactive)
[10]
  GI50: 48.4 µM (inactive)
[11]
  GI50: 51.3 µM
[12]
  GI50: 48.6 µM (inactive)
[13]
  GI50: > 55.7 µM (inactive)
[14]
  GI50: 19.2 µM (inactive)
[15]
  GI50: 85.5 µM (inactive)
[16]
  GI50: > 86.1 µM (inactive)
[17]
  GI50: > 86.7 µM (inactive)
[18]
  GI50: 72.8 µM (inactive)
[19]
  GI50: 47.6 µM (inactive)
[20]
  GI50: 44.1 µM (inactive)
[21]
  GI50: 63.2 µM (inactive)
[22]
  GI50: 25.9 µM (inactive)
[23]
  GI50: > 62.7 µM (inactive)
[24]
  GI50: 52.7 µM (inactive)
[25]
  GI50: > 80.5 µM (inactive)
[26]
  GI50: 53.2 µM (inactive)
[27]
  GI50: 71 µM (inactive)
[28]
  GI50: 43.1 µM (inactive)
[29]
  GI50: > 100 µM (inactive)
[30]
  GI50: 65 µM (inactive)
[31]
  GI50: 40.1 µM (inactive)
[32]
  GI50: 59.8 µM (inactive)
[33]
  GI50: 71.6 µM (inactive)
[34]
  GI50: > 79.6 µM (inactive)
[35]
  GI50: > 100 µM (inactive)
[36]
  GI50: 86.5 µM (inactive)
[37]
  GI50: 57.5 µM (inactive)
[38]
  GI50: 71.3 µM (inactive)
[39]
  GI50: 63.1 µM (inactive)
[40]
  GI50: > 91.4 µM (inactive)
[41]
  GI50: > 100 µM (inactive)
[42]
  GI50: 69.2 µM (inactive)
[43]
  GI50: 79.3 µM (inactive)
[44]
  GI50: > 83.6 µM (inactive)
[45]
  GI50: 38.9 µM (inactive)
[46]
  GI50: 59.8 µM (inactive)
[47]
  GI50: > 71.4 µM (inactive)
[48]
  GI50: > 100 µM (inactive)
[49]
  GI50: 69.3 µM (inactive)
[50]
  GI50: > 60.5 µM (inactive)
[51]
  GI50: > 100 µM (inactive)
[52]
  GI50: > 100 µM (inactive)
[53]
  GI50: 79.1 µM (inactive)
[54]
  GI50: 57.9 µM (inactive)
[55]
  GI50: 56 µM (inactive)
[56]
  GI50: 2.2 µM (inactive)

— ChEMBL document CHEMBL1201862, “PubChem BioAssay data set” (2004)
